Assay results: patent US5332731A, “Cephalosporin derivatives” (Meiji Seika Kaisha, Ltd., priority 1989, dated 1994)

Assays:
[1] = oral toxicity in mice; conditions: mouse, in vivo, oral administration, read-out: oral dosage tolerated without exhibiting toxic symptoms
Experimental: The new cephalosporin derivative of this invention may be administered orally at a unit dose of 100 mg to 250 mg to an adult human patient four times a day, for a guideline. However, precise dosage of the new cephalosporin is determinable through preliminary routine experiments, depending on the body weight, ages, sex and other various parameters of patients as well as the nature of the bacterial infections to be treated, and so on.

[2] = recovery in urine of mice after oral administration (paper-disc assay); assay type: in vivo, mice of ICR-strain; conditions: ICR mice, male, 0.5 mg per mouse oral; 0-4 h; molar %, as free carboxylic acid; averaged
Source text: Thus, some tests were made to evaluate the amount or rate of the cephalosporin compound of this invention which can be recovered as the antibacterially active compound from the urine after it was orally given to mice.
The test compounds estimated in this test for their rate of recovery from urine are Compounds Nos. 2, 4, 6, 8, 10, 12, 14, 16, 18, 20, 22, 24, 26, 28, 30, 32, 34, 36 and 38 identified hereinbefore which are the particular examples of the cephalosporin derivative of general formula (I) of this invention and which are in the form of the pivaloyloxymethyl ester.
To mice of ICR-strain (male, 4-weeks-aged, five mice in each group) was orally administered the test compound identified above at a dosage of 0.5 mg per mouse. By the end of 4 hours after the administration of the test compound, all the amounts of the urine excreted by the treated mice were collected together, and the total quantity of the cephalosporin compound of this invention (as the free carboxylic acid form) in the urine so collected was determined according to a paper-disc assay method using Escherichia coli K-12 8236 strain as the assay strain. […]

Rate of recovery of test compound remaining in urine collected during 0 to 4 hours after oral administration [2]	SMILES	NOAEL [1] [mg/kg]
–	CO/N=C(\C(=O)NC1C(=O)N2C(C(=O)OCOC(=O)C(C)(C)C)=C(SCC3COCO3)CS[C@H]12)c1csc(N)n1 (some centres unmarked) [Compound No. 30, pivaloyloxymethyl 7-[(Z)-2-(2-aminothiazol-4-yl)-2-methoxyiminoacetamido]-3-(1,3-dioxolan-4-yl) methylthio-3-cephem-4-carboxylate]	3000
Less than detectable amount	CC(C)(C)C(=O)OCOC(=O)C1=C(SCC2CCOCC2)CS[C@@H]2C(NC(=O)/C(=N\O)c3csc(N)n3)C(=O)N12 (some centres unmarked) [Compound No. 38, pivaloyloxymethyl 7-[(Z)-2-(2-aminothiazol-4-yl)-2-hydroxyiminoacetamido]-3-(tetrahydropyran-4-yl) methylthio-3-cephem-4-carboxylate]	–
